# Patent US4978332A, “Treatments employing vasoconstrictive substances in combination with cytotoxic agents for introduction into cellular lesion areas” (priority 1987, dated 1990)
# Structures can show the parent of a compound that is named as a salt. Where two headings read alike, the source gives them in different places.
# Legend:
# [1] = tested on: RIF-1 murine fibrosarcoma
# Method: The transplantable experimental murine fibrosarcomas RIF-1 or KHT were grown intradermally (2×10^5 cells injected i.d.) in the flank of 5 month old male C3H mice. When tumors reached a volume of ~100 mm^3 they were used for the studies. […] Drug concentrations were: adriamycin, 3.75 mg/ml: BCNU, 10 mg/ml: vinblastine, 1.2 mg/ml; and 5-fluorouracil, 30 mg/ml. The drugs were administered intraperitoneally (i.p.) or intratumorally (i.t.) in an injection volume of 0.1 ml. The tumors of the treated mice as well as untreated control tumors were measured three times per week by vernier calipers and their volumes were calculated by the formula:
# *This ratio indicated the time it would take a treated tumor to grow to
# 4× its initial size, divided by the time it would take an untreated
# tumor to grow to 4× its initial size.
# [2] = tested on: murine fibrosarcomas RIF-1 or KHT; conditions: epinephrine 1 mg/kg alone
# Method: (§1) The transplantable experimental murine fibrosarcomas RIF-1 or KHT were grown intradermally (2×10^5 cells injected i.d.) in the flank of 5 month old male C3H mice. When tumors reached a volume of ~100 mm^3 they were used for the studies. The cytotoxic drugs under study (all were formulated for human clinical use) were made up just prior to use in their appropriate aqueous vehicle except those experimental groups in which epinephrine-HCl (1 mg/ml) was added to the aqueous drug (usually ~10% of total volume). Drug concentrations were: adriamycin, 3.75 mg/ml: BCNU, 10 mg/ml: vinblastine, 1.2 mg/ml; and 5-fluorouracil, 30 mg/ml. The drugs were administered intraperitoneally (i.p.) or intratumorally (i.t.) in an injection volume of 0.1 ml. The tumors of the treated mice as well as untreated control tumors were measured three times per week by vernier calipers and their volumes were calculated by the formula: […]
# (§2) where D1 -D3 are tumor diameters in mm. The time (days) for the tumors to grow to four times their original experimental volume was used as a parameter of treatment effectiveness.
# KHT murine fibrosarcoma = assay: Tumor growth ratio (time to grow to 4x initial volume, treated/untreated), KHT fibrosarcoma in C3H mice; format: in vivo, mouse (C3H)
# Method: as §1, §2
# [3] = 2 mg/kg BW i.t., Epi 1 mg/kg where combined
structure (smiles),measurement,setting,value
"O=c1[nH]cc(F)c(=O)[nH]1 [5-Fluorouracil, 5-fluorouracil]",Tumor Growth Ratio,[1]; 100 mg/kg BW i.p.,1.20
same,Tumor Growth Ratio,"[1]; 100 mg/kg BW i.t., Epi 1 mg/kg where combined",1.30
"COc1cccc2c1C(=O)c1c(O)c3c(c(O)c1C2=O)C[C@@](O)(C(=O)CO)C[C@@H]3O[C@H]1C[C@H](N)[C@H](O)[C@H](C)O1 [Adriamycin, doxorubicin hydrochloride]",Tumor Growth Ratio,[1]; 15 mg/kg BW i.p.,1.63
same,Tumor Growth Ratio,"[1]; 15 mg/kg BW i.t., Epi 1 mg/kg where combined",3.04
"CNC[C@H](O)c1ccc(O)c(O)c1 [Epinephrine, epinephrine]",chemotherapeutic effect when used alone,[2],not chemotherapeutic when used alone
"CC[C@]1(O)C[C@@H]2CN(CCc3c([nH]c4ccccc34)[C@@](C(=O)OC)(c3cc4c(cc3OC)N(C)[C@H]3[C@@](O)(C(=O)OC)[C@H](OC(C)=O)[C@]5(CC)C=CCN6CC[C@]43[C@@H]65)C2)C1 [Vinblastine, vinblastine sulfate]",Tumor Growth Ratio,[1]; 2 mg/kg BW i.p.,1.12
same,Tumor Growth Ratio,[1]; [3],3.01
same,Tumor Growth Ratio,KHT murine fibrosarcoma; 2 mg/kg BW i.p.,1.16
same,Tumor Growth Ratio,KHT murine fibrosarcoma; [3],1.76
"O=NN(CCCl)C(=O)NCCCl [BCNU (carmustine), carmustine]",Tumor Growth Ratio,"KHT murine fibrosarcoma; 40 mg/kg BW i.t., Epi 1 mg/kg where combined",2.08
